From the Kinase Knowledgebase extract (Sharma et al. 2016)

Target: PIK3CA (human) (UniProt P42336)
Assay: Assessment of PIK3CA Kinase Activity

Chain of PIK3CA (human) (P42336 whole entry, looked up): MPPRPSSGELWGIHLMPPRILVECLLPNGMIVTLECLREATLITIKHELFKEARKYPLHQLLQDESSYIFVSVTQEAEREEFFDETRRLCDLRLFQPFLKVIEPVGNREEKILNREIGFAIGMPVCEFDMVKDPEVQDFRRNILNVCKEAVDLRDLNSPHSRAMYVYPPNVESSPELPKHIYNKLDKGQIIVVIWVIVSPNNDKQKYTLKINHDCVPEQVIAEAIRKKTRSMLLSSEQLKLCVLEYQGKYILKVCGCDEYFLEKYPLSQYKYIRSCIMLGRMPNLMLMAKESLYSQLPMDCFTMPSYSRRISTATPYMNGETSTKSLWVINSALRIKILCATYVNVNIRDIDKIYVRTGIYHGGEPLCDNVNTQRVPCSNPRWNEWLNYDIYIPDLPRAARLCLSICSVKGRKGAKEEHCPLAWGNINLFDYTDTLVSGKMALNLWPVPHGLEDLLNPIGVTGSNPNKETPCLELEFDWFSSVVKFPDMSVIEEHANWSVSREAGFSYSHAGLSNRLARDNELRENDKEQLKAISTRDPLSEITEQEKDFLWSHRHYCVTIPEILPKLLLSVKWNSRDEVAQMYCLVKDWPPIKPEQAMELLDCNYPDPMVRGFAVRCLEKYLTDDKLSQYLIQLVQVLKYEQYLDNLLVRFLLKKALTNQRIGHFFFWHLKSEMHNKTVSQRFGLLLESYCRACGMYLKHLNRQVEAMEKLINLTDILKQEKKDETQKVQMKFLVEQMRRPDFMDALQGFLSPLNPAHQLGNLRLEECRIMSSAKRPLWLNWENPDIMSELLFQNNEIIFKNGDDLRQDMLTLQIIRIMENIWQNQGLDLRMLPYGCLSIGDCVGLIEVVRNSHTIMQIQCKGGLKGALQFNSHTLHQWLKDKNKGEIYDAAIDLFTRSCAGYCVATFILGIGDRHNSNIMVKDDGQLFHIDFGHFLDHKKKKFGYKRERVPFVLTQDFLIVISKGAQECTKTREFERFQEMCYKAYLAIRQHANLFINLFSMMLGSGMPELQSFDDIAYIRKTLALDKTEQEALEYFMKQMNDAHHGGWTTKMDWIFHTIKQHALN

| SMILES | IC50 |
| --- | --- |
| CC(C)n1ncnc1-c1cn2c(n1)-c1cnc(N3CC=C[C@@H]3C(N)=O)cc1OCC2 | < 1000 nM |
| CC(C)n1ncnc1-c1cn2c(n1)-c1cnc(O[C@H](C)C(N)=O)cc1OCC2 | < 1000 nM |
| CS(=O)(=O)CCN1CCC(c2ccc3c(c2)-n2nc(-c4ncnn4CC(F)(F)F)cc2CCO3)CC1 | < 1000 nM |
| C[C@@H](Oc1ccc2c(c1)OCCn1cc(-c3ncnn3CC(F)(F)F)nc1-2)C(N)=O | < 1000 nM |
| CC(C)n1ncnc1-c1cn2c(n1)-c1cnc(N3CC[C@@H](O)C3)cc1OCC2 | < 1000 nM |
| CC(CO)Nc1cc2c(cn1)-c1nc(-c3ncnn3CC(F)(F)F)cn1CCO2 (stereo not drawn) | < 1000 nM |
| CC(C)n1ncnc1-c1cn2c(n1)-c1ccc(N(C)[C@@H](C)C(N)=O)cc1OCC2 | < 1000 nM |
| CC(C)n1ncnc1-c1cn2c(n1)-c1cnc(N3CCC[C@@]3(C)C(N)=O)cc1OCC2 | < 1000 nM |
| CC(C)n1nc(C2CC2)nc1-c1cn2c(n1)-c1ccc(Br)cc1OCC2 | < 1000 nM |
| Cc1nc(-c2cn3c(n2)-c2ccc(OC(C)C)cc2OCC3)n(C(C)C)n1 | < 1000 nM |
| COc1ccc2c(c1)OCCn1cc(-c3ncnn3C(C)C)nc1-2 | < 1000 nM |
| Cc1nc(-c2cn3c(n2)-c2ccc(-c4cnn(C5CN(C(=O)[C@H](C)O)C5)c4)cc2OCC3)n(C(C)C)n1 | < 1000 nM |
| CC(C)n1ncnc1-c1cn2c(n1)-c1ccc([C@@H]3C[C@H]4CC[C@@H](C3)N4CC(N)=O)cc1OCC2 | < 1000 nM |
| NC(=O)[C@@H]1CCCN1c1cc2c(cn1)-c1nc(-c3ncnn3CC(F)(F)F)cn1CCO2 | < 1000 nM |
| CC(C)n1nc(N)nc1-c1cn2c(n1)-c1ccc(-c3ccc(Cl)cc3)cc1OCC2 | < 1000 nM |
| CC[C@@H](Oc1ccc2c(c1)OCCn1cc(-c3ncnn3CC(F)(F)F)nc1-2)C(N)=O | < 1000 nM |
| FC(F)(F)Cn1ncnc1-c1cc2n(n1)-c1cc(C3CCNCC3)ccc1OCC2 | < 1000 nM |
| CC(C)n1ncnc1-c1cn2c(n1)-c1ccc(C3CCN(CC(=O)N(C)C)CC3O)cc1OCC2 (stereo not drawn) | < 1000 nM |
| CC(C)n1nc(CO)nc1-c1cn2c(n1)-c1ccccc1OCC2 | < 1000 nM |
| CCc1ccccc1-c1ccc2c(c1)OCCn1cc(-c3ncnn3C(C)C)nc1-2 | < 1000 nM |
| CC(C)(CO)NC(=O)c1ccc2c(c1)-c1nc(-c3ncnn3-c3ccc(F)cc3F)cn1CCO2 | < 1000 nM |
| Cc1nc(-c2cn3c(n2)-c2ccc(CNCC(C)(C)O)cc2OCC3)n(-c2ccc(F)cc2F)n1 | < 1000 nM |
| Cc1nc(-c2cn3c(n2)-c2cnc(N4CCC[C@H]4C(N)=O)cc2OCC3)n(C(C)C)n1 | < 1000 nM |
| CCNC(=O)CN1CCC(c2ccc3c(c2)OCCn2cc(-c4nc(C)nn4C(C)C)nc2-3)CC1 | < 1000 nM |

| SMILES | IC50 |
| --- | --- |
| CC(C)n1ncnc1-c1cn2c(n1)-c1ccc(Br)cc1OCC2 | < 1000 nM |
| CC(C)n1ncnc1-c1cn2c(n1)-c1ccc(N3CC(N)(CO)C3)cc1OCC2 | < 1000 nM |
| CC(C)n1ncnc1-c1cn2c(n1)-c1cnc(N3CCC[C@H]3C(N)=O)cc1OCC2 | < 1000 nM |
| Cc1nc(-c2cn3c(n2)-c2cnc(N4CCCC4Cc4ccccc4C)cc2OCC3)n(CC(F)(F)F)n1 (stereo not drawn) | < 1000 nM |
| COC(=O)c1ccc2c(c1)OCCn1cc(-c3cccc(C(F)(F)F)c3)nc1-2 | < 1000 nM |
| OCc1nc(-c2cn3c(n2)-c2cnc(Cl)cc2OCC3)n(CC(F)(F)F)n1 | < 1000 nM |
| CC(C)(CO)NC(=O)c1ccc2c(c1)-c1nc(-c3ncnn3-c3ccccc3Cl)cn1CCO2 | < 1000 nM |
| Cc1nc(-c2cn3c(n2)-c2ccc(-c4cnn(CCO)c4)cc2OCC3)n(C(C)C)n1 | < 1000 nM |
| Cc1nc(-c2cn3c(n2)-c2cc(-c4ccc[nH]c4=O)ccc2OCC3)n(C(C)C)n1 | < 1000 nM |
| CC(C)n1ncnc1-c1cn2c(n1)-c1ccc(NCC(N)=O)cc1OCC2 | < 1000 nM |
| CNC(=O)C(C)(C)N1CCC(c2ccc3c(c2)OCCn2cc(-c4ncnn4C(C)C)nc2-3)C(O)C1 (stereo not drawn) | < 1000 nM |
| CC(C)n1ncnc1-c1cn2c(n1)-c1cc(-c3cncnc3)ccc1OCC2 | < 1000 nM |
| CC(C)n1ncnc1-c1cn2c(n1)-c1ccc(-c3ccc(N)nc3)cc1OCC2 | < 1000 nM |
| Cc1nc(-c2cn3c(n2)-c2ccc(-c4cnn(CCO)c4)cc2OCC3)n(C)n1 | < 1000 nM |
| COc1ccc2c(c1)OCCn1cc(-c3nc(C)nn3C(C)C)nc1-2 | < 1000 nM |
| Cc1nc(-c2cn3c(n2)-c2cc(F)ccc2OCC3)n(C(C)C)n1 | < 1000 nM |
| CC(C)n1nc(N)nc1-c1cn2c(n1)-c1cc(-c3ccccc3)ccc1OCC2 | < 1000 nM |
| N#Cc1ccc2c(c1)OCCn1cc(-c3nc(N)nn3CC(F)(F)F)nc1-2 | < 1000 nM |
| CC(C)n1ncnc1-c1cn2c(n1)-c1ccc(-c3cn(CC(C)(C)O)cn3)cc1OCC2 | < 1000 nM |
| CC(C)(CO)N1CCC(c2ccc3c(c2)-c2nn(-c4ncnn4-c4ccc(F)cc4F)cc2CCO3)CC1 | < 1000 nM |
| COC(=O)c1ccc2c(c1)OCCn1cc(-c3cccc(C(C)C)c3)nc1-2 | < 1000 nM |
| Cc1nc(-c2cn3c(n2)-c2ccc(-c4cnn(C5CN(CCO)C5)c4)cc2OCC3)n(C(C)C)n1 | < 1000 nM |
| O=C(c1ccc2c(c1)-c1nc(-c3ncnn3CC(F)(F)F)cn1CCO2)N1CCN(CCO)CC1 | < 1000 nM |
| COC[C@H](Nc1ccc2c(c1)OCCn1cc(-c3ncnn3CC(F)(F)F)nc1-2)C(N)=O | < 1000 nM |
